pIC50: −log10 of the molar value.
How the values were obtained:
[1] = Cytotoxicity against human LNCAP cells assessed as cell viability inhibition at 10 uM after 72 hrs by Alamar blue assay; type: functional
[2] = Potentiation of vinblastin-induced cytotoxicity against human CEM cells at 5 uM after 72 hrs by Alamar blue assay relative to control; type: functional, CCRF-CEM
CCRF-CEM VCR/R = assay: Inhibition of P-gp in human CCRF-CEM VCR/R cells assessed as potentiation of vinblastin-induced cytotoxicity at 5 uM after 72 hrs by Alamar blue assay relative to control; type: cell-based
[3] = target: T1, Large neutral amino acids transporter small subunit 3 (Homo sapiens, UniProt O75387); assay: Inhibition of LAT3 in human LNCAP cells assessed as inhibition of [3H]L-leucine uptake after 15 mins by liquid scintillation counting method; type: cell-based
T1 sequence (O75387 whole entry): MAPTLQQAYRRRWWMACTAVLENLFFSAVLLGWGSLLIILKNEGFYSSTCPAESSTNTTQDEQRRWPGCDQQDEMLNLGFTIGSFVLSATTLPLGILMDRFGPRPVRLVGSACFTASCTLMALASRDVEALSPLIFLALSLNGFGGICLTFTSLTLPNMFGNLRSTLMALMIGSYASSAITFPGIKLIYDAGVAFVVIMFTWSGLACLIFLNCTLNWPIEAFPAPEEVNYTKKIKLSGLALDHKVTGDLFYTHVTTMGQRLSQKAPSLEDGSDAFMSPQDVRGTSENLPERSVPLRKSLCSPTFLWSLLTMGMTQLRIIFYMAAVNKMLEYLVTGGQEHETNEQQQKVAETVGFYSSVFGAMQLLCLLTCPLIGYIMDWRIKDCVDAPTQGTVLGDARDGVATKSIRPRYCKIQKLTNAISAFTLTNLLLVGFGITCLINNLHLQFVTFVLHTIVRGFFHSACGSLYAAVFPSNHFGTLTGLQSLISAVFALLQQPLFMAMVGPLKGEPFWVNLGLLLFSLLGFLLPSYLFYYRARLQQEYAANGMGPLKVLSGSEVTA

[4] = target: T2, Large neutral amino acids transporter small subunit 3 (Homo sapiens) (UniProt O75387); assay: Inhibition of LAT3 in human LNCAP cells assessed as inhibition of [3H]L-leucine uptake at 10 mM after 15 mins by liquid scintillation counting method relative to control; type: cell-based
T2 sequence (whole entry): T1 sequence (O75387 whole entry)

[5] = target: T2, Large neutral amino acids transporter small subunit 3 (Homo sapiens); assay: Inhibition of LAT3 in human LNCAP cells assessed as inhibition of [3H]L-leucine uptake at 10 uM after 15 mins by liquid scintillation counting method relative to control; type: cell-based

SMILES	inhibition at 10 µM [1] [%]	fold change (FC) [2]	fold change (FC) (CCRF-CEM VCR/R)	further results
CC(=O)OC[C@@]12[C@@H](OC(C)=O)CC[C@@H](C)[C@]13OC(C)(C)[C@H](C(=O)[C@H]2OC(=O)c1ccccc1)[C@H]3OC(C)=O	> 30	1.9	50.6	pIC50 [3]: 3.82
CC(=O)OC[C@@]12[C@@H](OC(C)=O)CC[C@@H](C)[C@]13OC(C)(C)[C@H]([C@@H](OC(C)=O)[C@H]2OC(=O)c1ccccc1)[C@H]3OC(C)=O	> 30	–	–	–
CC(=O)O[C@H]1CC[C@@H](C)[C@]23OC(C)(C)[C@H]([C@@H](O)[C@@H](OC(=O)c4ccccc4)[C@]12C)[C@H]3OC(C)=O	> 30	–	–	–
COCC(=O)O[C@@H]1[C@@H]2[C@@H](OC(C)=O)[C@]3(OC2(C)C)[C@H](C)CC[C@H](OC(C)=O)[C@@]3(COC(C)=O)[C@@H]1OC(=O)c1ccccc1	> 30	–	–	–
CC(=O)OC[C@@]12[C@@H](OC(C)=O)CC[C@@H](C)[C@]13OC(C)(C)[C@H](C[C@@H]2OC(=O)c1ccccc1)[C@H]3OC(C)=O	> 30	–	–	–
CC(=O)OC[C@@]12[C@@H](OC(C)=O)CC[C@@H](C)[C@]13OC(C)(C)[C@H]([C@@H](O)[C@H]2OC(=O)c1ccccc1)[C@H]3OC(C)=O	> 30	1.7	36.3	pIC50 [3]: 3.90
CC(=O)OC[C@@]12[C@@H](OC(C)=O)CC[C@@H](C)[C@]13OC(C)(C)[C@H]([C@@H](OC(=O)C(C)(C)C)[C@H]2OC(=O)c1ccccc1)[C@H]3OC(C)=O	25.6	1.5	124	–
CC(=O)OC[C@@]12[C@@H](OC(C)=O)CC[C@@H](C)[C@]13OC(C)(C)[C@H]([C@@H](OC(=O)c1ccccc1)[C@H]2OC(=O)c1ccccc1)[C@H]3OC(C)=O	21.2	2.1	131	–
CC(=O)O[C@H]1CC[C@@H](C)[C@]23OC(C)(C)[C@H](C[C@H](OC(=O)c4ccccc4)[C@]12C)[C@H]3OC(C)=O	> 30	–	–	–
CC(=O)OC[C@@]12[C@@H](OC(C)=O)CC[C@@H](C)[C@]13OC(C)(C)[C@H]([C@@H](OC(C)=O)[C@H]2OC(=O)c1ccccc1)[C@H]3O	> 30	–	–	–
NC1(C(=O)O)CC2CCC1C2 (stereo not given)	–	–	–	inhibition [4]: 40.2%
CC(=O)O[C@@H]1[C@@H]2[C@@H](OC(C)=O)[C@]3(OC2(C)C)[C@H](C)CC[C@H](OC(C)=O)[C@@]3(C)[C@@H]1OC(=O)c1ccccc1	14.6	2	61	pIC50 [3]: 4.81
CC(=O)OC[C@@]12[C@@H](OC(C)=O)CC[C@@H](C)[C@]13OC(C)(C)[C@H]([C@@H](OC(=O)c1ccc(Br)cc1)[C@H]2OC(=O)c1ccccc1)[C@H]3OC(C)=O	> 30	–	–	–
COc1ccc(CCN(C)CCCC(C#N)(c2ccc(OC)c(OC)c2)C(C)C)cc1OC (stereo not given) [VERAPAMIL]	–	2.8	64.5	inhibition [5]: 82.7%
CC(=O)OC[C@@]12[C@@H](OC(C)=O)CC[C@@H](C)[C@]13OC(C)(C)[C@H]([C@@H](O)[C@@H]2OC(=O)c1ccccc1)[C@H]3OC(C)=O	> 30	–	–	–
